# Columns and labels:
# [1] = biological target: Dual specificity protein kinase CLK1 (Homo sapiens) (UniProt P49759)
# [2] = biological target: Cyclin-G-associated kinase (Homo sapiens) (UniProt O14976)
# [3] = biological target: Phosphatidylinositol 4-phosphate 5-kinase type-1 gamma (Homo sapiens) (UniProt O60331)
# [4] = biological target: Epidermal growth factor receptor (Homo sapiens) (UniProt P00533)
# [5] = biological target: Mitogen-activated protein kinase 7 (Homo sapiens) (UniProt Q13164)
# [6] = biological target: Serine/threonine-protein kinase TAO1 (Homo sapiens) (UniProt Q7L7X3)
# [7] = biological target: Ribosomal protein S6 kinase alpha-6 (Homo sapiens) (UniProt Q9UK32)
# [8] = biological target: RAC-gamma serine/threonine-protein kinase (Homo sapiens) (UniProt Q9Y243)
# [9] = test system: Epidermal growth factor receptor (Homo sapiens), P00533 [UNDEFINED MUTATION]
# [10] = biological target: Casein kinase I isoform alpha-like (Homo sapiens) (UniProt Q8N752)
# [11] = biological target: Serine/threonine-protein kinase WNK4 (Homo sapiens) (UniProt Q96J92)
# [12] = biological target: Inhibitor of nuclear factor kappa-B kinase subunit epsilon (Homo sapiens) (UniProt Q14164)
# Chain of Inhibitor of nuclear factor kappa-B kinase subunit epsilon (Homo sapiens) (Q14164 whole entry): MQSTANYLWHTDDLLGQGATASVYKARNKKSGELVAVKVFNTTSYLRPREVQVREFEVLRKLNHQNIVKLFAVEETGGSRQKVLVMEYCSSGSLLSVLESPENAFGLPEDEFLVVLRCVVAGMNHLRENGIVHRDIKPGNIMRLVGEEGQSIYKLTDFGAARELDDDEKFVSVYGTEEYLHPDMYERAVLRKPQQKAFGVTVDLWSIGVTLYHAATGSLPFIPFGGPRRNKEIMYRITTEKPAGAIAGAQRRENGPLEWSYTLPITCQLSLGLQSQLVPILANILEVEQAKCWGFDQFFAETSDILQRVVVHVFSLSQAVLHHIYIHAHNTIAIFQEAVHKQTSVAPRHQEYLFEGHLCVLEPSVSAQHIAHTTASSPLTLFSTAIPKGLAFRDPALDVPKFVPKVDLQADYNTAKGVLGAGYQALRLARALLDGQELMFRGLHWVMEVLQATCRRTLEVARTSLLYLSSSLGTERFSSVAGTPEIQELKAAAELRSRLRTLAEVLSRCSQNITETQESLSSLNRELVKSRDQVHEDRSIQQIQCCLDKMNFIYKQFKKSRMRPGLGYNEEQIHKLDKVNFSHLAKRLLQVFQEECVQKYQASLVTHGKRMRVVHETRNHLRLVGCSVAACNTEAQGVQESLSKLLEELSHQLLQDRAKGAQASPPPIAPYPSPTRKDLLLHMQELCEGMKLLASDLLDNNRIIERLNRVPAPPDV
# [13] = biological target: Serine/threonine-protein kinase Nek4 (Homo sapiens) (UniProt P51957)
# [14] = biological target: Phosphatidylinositol 4,5-bisphosphate 3-kinase catalytic subunit beta isoform (Homo sapiens) (UniProt P42338)
# Chain of Phosphatidylinositol 4,5-bisphosphate 3-kinase catalytic subunit beta isoform (Homo sapiens) (P42338 whole entry, looked up, canonical isoform): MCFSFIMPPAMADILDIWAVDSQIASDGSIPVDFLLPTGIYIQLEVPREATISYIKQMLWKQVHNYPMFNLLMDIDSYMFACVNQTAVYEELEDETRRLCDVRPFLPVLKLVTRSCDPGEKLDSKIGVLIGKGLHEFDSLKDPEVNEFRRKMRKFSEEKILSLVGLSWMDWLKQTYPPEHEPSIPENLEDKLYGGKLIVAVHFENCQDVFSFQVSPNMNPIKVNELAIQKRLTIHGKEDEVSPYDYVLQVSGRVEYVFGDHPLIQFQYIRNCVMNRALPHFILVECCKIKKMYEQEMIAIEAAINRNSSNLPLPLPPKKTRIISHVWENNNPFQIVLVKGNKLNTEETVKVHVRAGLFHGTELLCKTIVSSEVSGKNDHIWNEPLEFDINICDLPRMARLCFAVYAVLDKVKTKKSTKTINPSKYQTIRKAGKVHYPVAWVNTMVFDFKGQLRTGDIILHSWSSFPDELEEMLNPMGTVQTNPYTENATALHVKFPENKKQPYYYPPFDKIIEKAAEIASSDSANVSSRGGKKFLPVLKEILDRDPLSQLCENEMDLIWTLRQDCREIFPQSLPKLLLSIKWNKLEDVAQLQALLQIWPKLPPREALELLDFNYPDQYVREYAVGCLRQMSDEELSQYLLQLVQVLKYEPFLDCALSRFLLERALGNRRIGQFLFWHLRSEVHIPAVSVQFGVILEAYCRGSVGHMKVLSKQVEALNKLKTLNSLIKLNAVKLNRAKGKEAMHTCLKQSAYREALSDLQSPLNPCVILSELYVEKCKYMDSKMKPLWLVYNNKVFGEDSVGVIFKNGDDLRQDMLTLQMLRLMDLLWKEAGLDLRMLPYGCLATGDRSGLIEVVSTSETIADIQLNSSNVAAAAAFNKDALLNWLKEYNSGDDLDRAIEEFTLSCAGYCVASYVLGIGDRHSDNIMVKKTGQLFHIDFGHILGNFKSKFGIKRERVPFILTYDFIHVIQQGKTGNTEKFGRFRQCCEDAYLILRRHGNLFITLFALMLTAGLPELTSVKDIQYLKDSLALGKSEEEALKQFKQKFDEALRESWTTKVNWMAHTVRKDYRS
# [15] = biological target: STE20-like serine/threonine-protein kinase (Homo sapiens) (UniProt Q9H2G2)
# [16] = biological target: Serine/threonine-protein kinase PAK 3 (Homo sapiens) (UniProt O75914)
# [17] = biological target: Serine/threonine-protein kinase 4 (Homo sapiens) (UniProt Q13043)
# Chain of Serine/threonine-protein kinase 4 (Homo sapiens) (Q13043 whole entry): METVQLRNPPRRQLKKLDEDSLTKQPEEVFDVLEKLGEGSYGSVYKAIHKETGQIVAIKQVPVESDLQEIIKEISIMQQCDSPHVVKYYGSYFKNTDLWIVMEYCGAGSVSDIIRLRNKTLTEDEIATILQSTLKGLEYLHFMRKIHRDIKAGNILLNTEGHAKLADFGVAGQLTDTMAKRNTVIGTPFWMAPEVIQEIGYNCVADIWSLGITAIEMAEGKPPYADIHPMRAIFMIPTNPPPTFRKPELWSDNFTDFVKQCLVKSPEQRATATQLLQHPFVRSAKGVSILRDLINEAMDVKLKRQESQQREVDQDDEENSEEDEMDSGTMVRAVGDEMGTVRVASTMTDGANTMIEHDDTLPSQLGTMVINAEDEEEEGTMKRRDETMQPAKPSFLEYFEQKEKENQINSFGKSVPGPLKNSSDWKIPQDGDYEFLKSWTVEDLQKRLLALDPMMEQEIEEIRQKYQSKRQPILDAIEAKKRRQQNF
# [18] = biological target: Ribosomal protein S6 kinase alpha-5 (Homo sapiens) (UniProt O75582)
# Chain of Ribosomal protein S6 kinase alpha-5 (Homo sapiens) (O75582 whole entry, looked up): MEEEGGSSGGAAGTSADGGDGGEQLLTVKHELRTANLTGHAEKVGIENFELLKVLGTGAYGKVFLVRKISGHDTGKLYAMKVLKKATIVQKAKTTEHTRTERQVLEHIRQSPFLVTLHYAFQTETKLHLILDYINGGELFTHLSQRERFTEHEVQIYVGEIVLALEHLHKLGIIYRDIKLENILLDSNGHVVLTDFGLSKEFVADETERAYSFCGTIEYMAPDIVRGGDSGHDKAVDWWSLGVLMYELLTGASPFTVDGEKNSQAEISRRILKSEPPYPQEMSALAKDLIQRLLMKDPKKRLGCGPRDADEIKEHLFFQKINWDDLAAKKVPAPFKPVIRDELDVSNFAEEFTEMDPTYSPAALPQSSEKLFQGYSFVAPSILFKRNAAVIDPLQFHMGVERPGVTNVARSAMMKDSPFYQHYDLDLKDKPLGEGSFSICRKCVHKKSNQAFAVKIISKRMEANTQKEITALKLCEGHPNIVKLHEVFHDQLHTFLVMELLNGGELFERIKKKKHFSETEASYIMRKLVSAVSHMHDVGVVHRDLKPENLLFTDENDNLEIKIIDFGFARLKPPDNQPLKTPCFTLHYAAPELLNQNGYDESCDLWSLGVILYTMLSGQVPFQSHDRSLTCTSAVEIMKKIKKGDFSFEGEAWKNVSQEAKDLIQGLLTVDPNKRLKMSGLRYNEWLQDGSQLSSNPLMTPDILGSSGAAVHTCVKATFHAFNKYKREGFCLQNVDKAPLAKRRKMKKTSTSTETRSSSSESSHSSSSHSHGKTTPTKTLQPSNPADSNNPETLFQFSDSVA
# [19] = biological target: Serine/threonine-protein kinase Nek1 (Homo sapiens) (UniProt Q96PY6)
# [20] = biological target: Casein kinase I isoform delta (Homo sapiens) (UniProt P48730)
# [21] = biological target: Myotonin-protein kinase (Homo sapiens) (UniProt Q09013)
# [22] = test system: Mast/stem cell growth factor receptor Kit (Homo sapiens), P10721 [L576P]
# [23] = biological target: Vascular endothelial growth factor receptor 3 (Homo sapiens) (UniProt P35916)
# [24] = biological target: Calcium/calmodulin-dependent protein kinase type II subunit gamma (Homo sapiens) (UniProt Q13555)
# [25] = biological target: Ribosomal protein S6 kinase alpha-5 (Homo sapiens) (UniProt O75582); remark: listed apart in the source
# [26] = biological target: Ephrin type-A receptor 1 (Homo sapiens) (UniProt P21709)
# [27] = biological target: Serine/threonine-protein kinase/endoribonuclease IRE1 (Homo sapiens) (UniProt O75460)
# [28] = biological target: Serine/threonine-protein kinase Sgk2 (Homo sapiens) (UniProt Q9HBY8)
# Chain of Serine/threonine-protein kinase Sgk2 (Homo sapiens) (Q9HBY8 whole entry): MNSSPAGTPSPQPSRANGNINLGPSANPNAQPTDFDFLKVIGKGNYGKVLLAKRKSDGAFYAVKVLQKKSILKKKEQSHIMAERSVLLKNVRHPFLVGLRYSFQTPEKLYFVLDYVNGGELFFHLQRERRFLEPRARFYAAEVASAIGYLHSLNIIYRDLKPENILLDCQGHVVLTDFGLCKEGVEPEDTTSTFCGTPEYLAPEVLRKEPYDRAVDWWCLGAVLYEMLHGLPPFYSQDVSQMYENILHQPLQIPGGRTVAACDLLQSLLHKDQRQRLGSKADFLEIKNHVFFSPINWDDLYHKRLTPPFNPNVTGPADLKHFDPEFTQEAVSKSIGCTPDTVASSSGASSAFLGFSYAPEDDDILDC
# [29] = biological target: Citron Rho-interacting kinase (Homo sapiens) (UniProt O14578)
# [30] = biological target: Serine/threonine-protein kinase LATS2 (Homo sapiens) (UniProt Q9NRM7)
# [31] = biological target: Calcium/calmodulin-dependent protein kinase kinase 1 (Homo sapiens) (UniProt Q8N5S9)
# [32] = biological target: Proto-oncogene tyrosine-protein kinase ROS (Homo sapiens) (UniProt P08922)
# [33] = biological target: Interleukin-1 receptor-associated kinase 3 (Homo sapiens) (UniProt Q9Y616)
# [34] = biological target: MAP kinase-interacting serine/threonine-protein kinase 1 (Homo sapiens) (UniProt Q9BUB5)
# [35] = biological target: Tyrosine-protein kinase FRK (Homo sapiens) (UniProt P42685)
# [36] = biological target: Cyclin-dependent kinase 11A (Homo sapiens) (UniProt Q9UQ88)
# Chain of Cyclin-dependent kinase 11A (Homo sapiens) (Q9UQ88 whole entry): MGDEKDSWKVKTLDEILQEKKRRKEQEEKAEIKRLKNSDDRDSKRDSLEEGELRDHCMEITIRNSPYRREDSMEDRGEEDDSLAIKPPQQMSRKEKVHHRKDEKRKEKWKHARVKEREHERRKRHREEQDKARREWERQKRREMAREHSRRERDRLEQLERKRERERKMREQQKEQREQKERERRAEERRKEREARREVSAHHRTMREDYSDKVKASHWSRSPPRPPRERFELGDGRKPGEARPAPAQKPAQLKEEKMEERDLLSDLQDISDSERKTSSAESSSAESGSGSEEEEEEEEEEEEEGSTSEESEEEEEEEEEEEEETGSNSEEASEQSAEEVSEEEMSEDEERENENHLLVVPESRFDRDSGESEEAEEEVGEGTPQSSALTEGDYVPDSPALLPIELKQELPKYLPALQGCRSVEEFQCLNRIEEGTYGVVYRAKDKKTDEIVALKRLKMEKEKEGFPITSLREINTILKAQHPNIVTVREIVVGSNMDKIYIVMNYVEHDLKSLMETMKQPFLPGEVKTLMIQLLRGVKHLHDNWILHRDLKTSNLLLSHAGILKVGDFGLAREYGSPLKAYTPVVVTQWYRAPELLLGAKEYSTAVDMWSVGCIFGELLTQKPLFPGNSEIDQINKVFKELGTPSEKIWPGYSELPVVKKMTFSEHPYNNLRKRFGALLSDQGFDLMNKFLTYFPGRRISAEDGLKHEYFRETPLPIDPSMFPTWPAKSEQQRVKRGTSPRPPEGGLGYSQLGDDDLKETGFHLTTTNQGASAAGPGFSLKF
# [37] = biological target: Serine/threonine-protein kinase 25 (Homo sapiens) (UniProt O00506)
# [38] = biological target: Calcium/calmodulin-dependent protein kinase type 1B (Homo sapiens) (UniProt Q6P2M8)
# [39] = biological target: Hormonally up-regulated neu tumor-associated kinase (Homo sapiens) (UniProt P57058)
# [40] = biological target: Phosphatidylinositol 4-phosphate 5-kinase type-1 alpha (Homo sapiens) (UniProt Q99755)
# [41] = test system: Mast/stem cell growth factor receptor Kit (Homo sapiens), P10721 [V559D,T670I]
# [42] = biological target: Muscarinic acetylcholine receptor M2 (Homo sapiens) (UniProt P08172); conditions: Compound concentration 10.0 uM
# [43] = biological target: Serine/threonine-protein kinase OSR1 (Homo sapiens) (UniProt O95747)
# [44] = biological target: Serine/threonine-protein kinase BRSK1 (Homo sapiens) (UniProt Q8TDC3)
# [45] = biological target: Sodium-dependent noradrenaline transporter (Homo sapiens) (UniProt P23975); conditions: Compound concentration 10.0 uM
# Chain of Sodium-dependent noradrenaline transporter (Homo sapiens) (P23975 whole entry): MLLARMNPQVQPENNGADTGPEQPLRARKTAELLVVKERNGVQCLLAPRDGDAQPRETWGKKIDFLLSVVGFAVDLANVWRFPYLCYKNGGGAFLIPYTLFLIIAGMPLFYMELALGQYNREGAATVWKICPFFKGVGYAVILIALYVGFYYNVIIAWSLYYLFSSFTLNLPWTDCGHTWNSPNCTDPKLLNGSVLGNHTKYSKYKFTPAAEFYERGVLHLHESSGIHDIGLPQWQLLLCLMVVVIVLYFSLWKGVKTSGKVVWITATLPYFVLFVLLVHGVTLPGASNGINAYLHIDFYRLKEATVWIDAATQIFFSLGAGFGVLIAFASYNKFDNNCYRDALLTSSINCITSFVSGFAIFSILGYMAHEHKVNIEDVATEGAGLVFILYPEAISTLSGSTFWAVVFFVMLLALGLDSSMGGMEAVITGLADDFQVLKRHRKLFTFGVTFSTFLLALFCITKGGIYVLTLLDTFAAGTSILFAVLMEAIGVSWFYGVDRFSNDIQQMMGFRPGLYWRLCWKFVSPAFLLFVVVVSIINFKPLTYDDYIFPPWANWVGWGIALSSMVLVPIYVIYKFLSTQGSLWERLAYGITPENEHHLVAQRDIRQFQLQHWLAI
# [46] = Compound concentration 1000.0 nM
# [47] = Compound concentration 100.0 nM
smiles,measurement,setting,value
C[C@H](NC(=O)Nc1cc2[nH]ncc2c(CO)n1)c1ccccn1 [ERKi-NC],residual activity,[1]; [46],94.4%
same,residual activity,[2]; [46],100%
same,residual activity,[3]; [46],99.3%
same,residual activity,[4]; [46],100%
same,residual activity,[5]; [46],87.9%
same,residual activity,[6]; [46],100%
same,residual activity,[7]; [46],100%
same,residual activity,[8]; [46],100%
same,residual activity,[9]; [46],100%
same,residual activity,[10]; [46],100%
same,residual activity,[11]; [46],100%
same,residual activity,[12]; [46],100%
same,residual activity,[13]; [46],83.9%
same,residual activity,[14]; [46],100%
same,residual activity,[15]; [46],76%
same,residual activity,[16]; [46],100%
same,residual activity,[17]; [46],100%
same,residual activity,[18]; [46],100%
same,residual activity,[19]; [46],100%
same,residual activity,[20]; [46],100%
same,residual activity,[21]; [46],100%
same,residual activity,[22]; [46],100%
same,residual activity,[23]; [46],100%
same,residual activity,[24]; [46],100%
same,residual activity,[25]; [46],100%
same,residual activity,[26]; [46],100%
same,residual activity,[27]; [46],100%
same,residual activity,[28]; [46],100%
same,residual activity,[29]; [46],99.9%
same,residual activity,[30]; [46],100%
same,residual activity,[31]; [46],100%
same,residual activity,[32]; [46],85%
same,residual activity,[33]; [46],99.3%
same,residual activity,[34]; [46],100%
same,residual activity,[35]; [46],100%
same,residual activity,[36]; [46],95.4%
same,residual activity,[37]; [46],100%
same,residual activity,[38]; [46],98.5%
same,residual activity,[39]; [46],100%
same,residual activity,[40]; [46],100%
same,residual activity,[41]; [46],85.5%
same,inhibition,[42],14.2%
same,residual activity,[43]; [46],100%
same,residual activity,[44]; [46],100%
same,inhibition,[45],25.4%
C[C@@H](NC(=O)Nc1cc2[nH]ncc2c(CO)n1)c1ccccc1 [ERKi],residual activity,[1]; [47],72.6%
same,residual activity,[2]; [47],100%
same,residual activity,[3]; [47],89.9%
same,residual activity,[4]; [47],80.6%
same,residual activity,[5]; [47],85.5%
same,residual activity,[6]; [47],66.4%
same,residual activity,[7]; [47],83.4%
same,residual activity,[8]; [47],73.3%
same,residual activity,[9]; [47],92.2%
same,residual activity,[10]; [47],79.8%
same,residual activity,[11]; [47],100%
same,residual activity,[12]; [47],66.7%
same,residual activity,[13]; [47],86.6%
same,residual activity,[14]; [47],81.5%
same,residual activity,[15]; [47],92.6%
same,residual activity,[16]; [47],100%
same,residual activity,[17]; [47],100%
same,residual activity,[18]; [47],87.8%
same,residual activity,[19]; [47],74.1%
same,residual activity,[20]; [47],84.7%
same,residual activity,[21]; [47],80.5%
same,residual activity,[22]; [47],72.1%
same,residual activity,[23]; [47],100%
same,residual activity,[24]; [47],84.6%
same,residual activity,[25]; [47],82.7%
same,residual activity,[26]; [47],100%
same,residual activity,[27]; [47],61.6%
same,residual activity,[28]; [47],66.7%
same,residual activity,[29]; [47],100%
same,residual activity,[30]; [47],29%
same,residual activity,[31]; [47],87.5%
same,residual activity,[32]; [47],100%
same,residual activity,[33]; [47],80%
same,residual activity,[34]; [47],89.6%
same,residual activity,[35]; [47],82.2%
same,residual activity,[36]; [47],100%
same,residual activity,[37]; [47],61.5%
same,residual activity,[38]; [47],91.2%
same,residual activity,[39]; [47],100%
same,residual activity,[40]; [47],84.5%
same,residual activity,[41]; [47],83.7%
same,inhibition,[42],-3.22%
same,residual activity,[43]; [47],69.8%
same,residual activity,[44]; [47],88.4%
same,inhibition,[45],-9.99%

# Source: ChEMBL document CHEMBL4507286 (2021)
